Assay results as given in US11066369B2, “N-(pyridin-2-yl)pyridine-sulfonamide derivatives and their use in the treatment of disease” (Novartis AG, priority 2016, dated 2021).

What was measured:
delF508-CFTR = biological target: T1, delF508-CFTR (Homo sapiens, UniProt P13569, DEL508-508); experiment: Measurement of delF508-CFTR functional activity in primary human bronchial epithelial cells (HBECs) using Multi-Transepithelial Clamp Circuit (MTECC-24) assay; format: cell-based; conditions: primary CF HBECs; for MTECC24 CFHBEC- Amax %: test compound added 24h before assay plus potentiator, relative to reference combination (2 μM corrector + 0.5 μM potentiator); for EC50: test compound added 24h before assay, in the presence of potentiator, mean of at least two replicates, read-out: MTECC24 CFHBEC- EC50
T1 construct: functional activity of the CFTR channel (Chloride ion transport) in patient derived primary human bronchial epithelial cells; host or cells: patient-derived primary human bronchial epithelial cells (delF508-CFTR)
Outline: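 Compound tested as 10-point, 1-in-3 concentration response (0.1% or 0.2% DMSO), 24 h basolateral pre-incubation, then re-added to both sides. MTECC-24 measured Ieq in ALI-differentiated primary delF508 bronchial cells after amiloride, forskolin activation, potentiator and INH-172 block; data normalized to DMSO baseline, EC50 fitted.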

[1] = biological target: T2, horseradish peroxidase (HRP) tagged delF508-CFTR (Homo sapiens, UniProt P13569, DEL508-508); experiment: Measurement of delF508-CFTR-HRP surface expression in CFBE41o- cells; format: cell-based; conditions: delF508-CFTR-HRP surface expression, CFBE41o- cells; for Emax: read-out: DelF508-CFTR-HRP Amax %; for EC50: read-out: DelF508-CFTR-HRP EC50;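 for DelF508-CFTR-HRP Amax %: percent efficacy relative to reference corrector lumacaftor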
T2 construct: expressed in transfected cells
Outline: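 Surface-trafficked delF508-CFTR detected via extracellular HRP tag, read as luminescence from a membrane-impermeant substrate in CFBE41o- cells. Cells pre-induced 48h with 500 ng/mL doxycycline, then exposed 24h at 37° C to a 10-point, 3-fold dilution series from 10 μM (DMSO ≤0.5%). Triplicate dose-responses fitted logistically for EC50 after per-plate normalization; fold change versus reference compound.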

T2 sequence (P13569 with tags, fused parts or gaps DEL508-508): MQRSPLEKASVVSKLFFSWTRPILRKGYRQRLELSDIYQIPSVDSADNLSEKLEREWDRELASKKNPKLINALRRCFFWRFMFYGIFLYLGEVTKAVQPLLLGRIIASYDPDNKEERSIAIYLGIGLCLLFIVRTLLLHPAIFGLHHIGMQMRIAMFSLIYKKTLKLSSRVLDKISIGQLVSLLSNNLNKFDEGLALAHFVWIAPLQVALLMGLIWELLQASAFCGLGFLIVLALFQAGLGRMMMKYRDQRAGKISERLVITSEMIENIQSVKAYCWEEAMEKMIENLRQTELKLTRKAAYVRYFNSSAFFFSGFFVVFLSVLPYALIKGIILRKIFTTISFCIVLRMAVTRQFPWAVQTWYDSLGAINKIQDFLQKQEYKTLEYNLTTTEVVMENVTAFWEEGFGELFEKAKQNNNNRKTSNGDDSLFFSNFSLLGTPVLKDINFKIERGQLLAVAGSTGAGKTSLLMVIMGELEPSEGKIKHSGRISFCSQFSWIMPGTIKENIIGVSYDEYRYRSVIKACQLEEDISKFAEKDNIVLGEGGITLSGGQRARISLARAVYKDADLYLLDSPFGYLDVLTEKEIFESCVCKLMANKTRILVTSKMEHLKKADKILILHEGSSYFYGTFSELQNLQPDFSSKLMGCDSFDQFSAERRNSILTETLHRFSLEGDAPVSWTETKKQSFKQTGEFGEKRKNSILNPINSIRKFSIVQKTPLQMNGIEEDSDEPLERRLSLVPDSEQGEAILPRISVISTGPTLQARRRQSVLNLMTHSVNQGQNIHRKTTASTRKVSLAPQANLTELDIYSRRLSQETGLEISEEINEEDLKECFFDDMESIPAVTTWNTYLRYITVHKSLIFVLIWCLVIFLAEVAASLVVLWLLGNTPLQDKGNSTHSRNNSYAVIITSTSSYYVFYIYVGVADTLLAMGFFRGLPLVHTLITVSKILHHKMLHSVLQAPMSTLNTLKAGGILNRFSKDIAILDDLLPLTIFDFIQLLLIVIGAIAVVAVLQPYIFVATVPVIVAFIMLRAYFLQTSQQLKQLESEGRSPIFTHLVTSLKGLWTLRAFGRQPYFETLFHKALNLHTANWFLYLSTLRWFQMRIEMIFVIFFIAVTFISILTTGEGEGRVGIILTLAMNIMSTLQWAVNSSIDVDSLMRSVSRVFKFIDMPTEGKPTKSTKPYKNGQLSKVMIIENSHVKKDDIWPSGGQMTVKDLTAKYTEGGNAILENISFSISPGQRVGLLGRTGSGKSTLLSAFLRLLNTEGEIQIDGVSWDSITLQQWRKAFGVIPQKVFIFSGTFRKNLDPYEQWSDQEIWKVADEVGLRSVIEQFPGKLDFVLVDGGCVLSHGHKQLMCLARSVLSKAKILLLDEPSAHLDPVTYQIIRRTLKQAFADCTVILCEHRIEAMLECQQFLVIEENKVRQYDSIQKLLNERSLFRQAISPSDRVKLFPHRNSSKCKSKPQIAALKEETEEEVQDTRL
T1 sequence (P13569 with tags, fused parts or gaps DEL508-508): as above

| MTECC24 CFHBEC- Amax % (delF508-CFTR) | EC50 (delF508-CFTR) | Emax [1] | EC50 [1] | SMILES |
| --- | --- | --- | --- | --- |
| 43.5% | 12.8 nM | 626% | 3270 nM | Cc1ccc(F)cc1-c1nc(NS(=O)(=O)c2cccc(N3CCC(C(=O)O)C3)n2)ccc1C(F)(F)F (centres unmarked) [Example 300, 1-(6-(N-(6-(5-fluoro-2-methylphenyl)-5-(trifluoromethyl)pyridin-2-yl)sulfamoyl)pyridin-2-yl) pyrrolidine-3-carboxylic Acid] |
| 73.6% | 13.3 nM | 496% | 2500 nM | Cc1ccccc1-c1nc(NS(=O)(=O)c2cccc(O[C@@H]3COC[C@@H]3O)n2)ccc1C(F)(F)F (racemic) [Example 291, rac-6-{[(3RS,4SR)-4-hydroxyoxolan-3-yl]oxy}-N-[6-(2-methylphenyl)-5-(trifluoromethyl)pyridin-2-yl]pyridine-2-sulfonamide] |
